Experimental findings from patent US7423175B2, “Hydroxy-tetrahydro-naphthalenylurea derivatives” (Bayer Healthcare AG, priority 2003, dated 2008) are described below.

Data set [1] has as its target T1, human VR1 (Homo sapiens, UniProt Q8NER1).
T1 construct: expressed in transfected cells; host or cells: CHOluc9aeq (CHO cells with aequorin and CRE-luciferase reporter genes)
Nature of the data set: Capsaicin-induced Ca2+ influx in the human VR1-transfected CHO cell line (Assay 1). In kind it is cell-based. The following applies: human VR1-CHOluc9aeq cells, stimulation with 10 nM capsaicin; read-out: activity class (IC50). From the text: [Measurement of Capsalcin-Induced Ca^2+ Influx in the Human VR1-Transfected CHO Cell Line] (Assay 1)
(1) Establishment of the Human VR1-CHOluc9aeq Cell Line
Human vanilloid receptor (hVR1) cDNA was cloned from libraries of axotomized dorsal root ganglia (WO 00/29577). The cloned hVR1 cDNA was constructed with pcDNA3 vector and transfected into a CHOluc9aeq cell line. The cell line contains aequorin and CRE-luciferase reporter genes as read-out signals. The transfectants were cloned by limiting dilution in selection medium (DMEM/F12 medium (Gibco BRL) supplemented with 10% FCS, 1.4 mM Sodium pyruvate, 20 mM HEPES, 0.15% Sodium bicarbonate, 100 U/ml penicillin, 100 μg/ml streptomycin, 2 mM glutamine, non-essential amino acids and 2 mg/ml G418). Ca^2+ influx was examined in the capsaicin-stimulated clones. A high responder clone was selected and used for further experiments in the project. The human VR1-CHOluc9aeq cells were maintained in the selection medium and passaged every 3-4 days at 1-2.5×10^5 cells/flask ([…]).
(2) Measurement of Ca^2+ Influx Using FDSS-3000
Human VR1-CHOluc9aeq cells were suspended in a culture medium which is the same as the selection medium except for G418 and seeded at a density of 1,000 cells per well into 384-well plates (black walled clear-base/Nalgei Nunc International). Following the culture for 48 hrs the medium was changed to 2 μM Fluo-3 AM (Molecular Probes) and 0.02% Puronic F-127 in assay buffer (Hank's balanced salt solution (HBSS), 17 mM HEPES (pH7.4), 1 mM Probenecid, 0.1% BSA) and the cells were incubated for 60 min at 25° C. After washing twice with assay buffer the cells were incubated with a test compound or vehicle for 20 min at 25° C. Mobilization of cytoplasmic Ca^2+ was measured by FDSS-3000 (λex=488 nm, λem=546 nm/Hamamatsu Photonics) for 60 sec after the stimulation with 10 nM capsaicin. Integral R was calculated and compared with controls.
Results in capsaicin-induced Ca^2+ influx assay in the human VR1-transfected CHO cell line (Assay 1) are shown in Examples and tables of the Examples below. For practical reasons, the compounds are grouped in four classes based on activity as follows: IC50=A(< or =)0.1 μM<B(< or =)0.5 μM<C(< or =)1 μM<D

T1 sequence (Q8NER1 whole entry): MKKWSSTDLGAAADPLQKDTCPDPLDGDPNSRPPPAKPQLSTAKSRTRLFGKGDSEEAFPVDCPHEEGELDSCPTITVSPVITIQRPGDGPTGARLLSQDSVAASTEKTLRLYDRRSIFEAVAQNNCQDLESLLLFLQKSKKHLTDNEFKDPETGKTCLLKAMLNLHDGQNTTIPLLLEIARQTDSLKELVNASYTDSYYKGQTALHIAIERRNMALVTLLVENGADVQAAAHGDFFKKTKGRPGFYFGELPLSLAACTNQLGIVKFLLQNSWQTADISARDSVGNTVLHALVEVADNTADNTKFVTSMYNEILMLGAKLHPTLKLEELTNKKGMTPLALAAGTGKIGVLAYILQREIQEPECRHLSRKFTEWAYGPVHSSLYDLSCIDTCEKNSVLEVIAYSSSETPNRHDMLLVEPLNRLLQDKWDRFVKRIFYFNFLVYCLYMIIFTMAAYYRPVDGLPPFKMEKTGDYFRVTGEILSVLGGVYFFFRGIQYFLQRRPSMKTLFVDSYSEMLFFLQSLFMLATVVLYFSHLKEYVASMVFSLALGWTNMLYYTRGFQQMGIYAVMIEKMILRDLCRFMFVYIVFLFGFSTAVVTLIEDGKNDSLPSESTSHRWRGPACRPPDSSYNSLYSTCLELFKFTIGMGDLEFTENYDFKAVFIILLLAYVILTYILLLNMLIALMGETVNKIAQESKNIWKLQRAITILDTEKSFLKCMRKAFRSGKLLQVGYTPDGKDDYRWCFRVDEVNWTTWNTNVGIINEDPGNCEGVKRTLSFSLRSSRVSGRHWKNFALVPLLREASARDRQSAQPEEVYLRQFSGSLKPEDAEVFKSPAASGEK

On to `O=C(NCCOc1ccc(F)cc1)Nc1cccc2c1CC(O)CC2` (centres unmarked) [Example 1-1, N-[2-(4-Fluorophenoxy)ethyl]-N′-(7-hydroxy-5,6,7,8-tetrahydronaphthalen-1-yl)urea], for which the melting point (as a rule, the temperature of the solid-liquid transition) fell in the range of 167 to 169 °C. The IC50 (in general, the concentration needed to halve the response being measured) in data set [1] is under 100 nM.

Regarding `CCN(CCNC(=O)Nc1cccc2c1C[C@H](O)CC2)c1cccc(C)c1` [Example 1-11, N-{2-[Ethyl(m-tolyl)amino]ethyl}-N′-[(7R)-7-hydroxy-5,6,7,8-tetrahydro-1-naphthalenyl]urea], the melting point was in the range of 143 to 144 °C. For the same compound, the IC50 in data set [1] was under 100 nM.

`O=C(NCCOc1ccc(F)cc1)Nc1cccc2c1C[C@H](O)CC2` [Example 1-7, N-[2-(4-Fluorophenoxy)ethyl]-N′-[(7R)-7-hydroxy-5,6,7,8-tetrahydronaphthalen-1-yl]urea] registered a melting point of 111 to 113 °C. In addition, the IC50 in data set [1] is under 100 nM.

As to `Cc1cccc(N(C)CCNC(=O)Nc2cccc3c2CC(O)CC3)c1` (centres unmarked) [Example 1-10, N-(7-Hydroxy-5,6,7,8-tetrahydronaphthalen-1-yl)-N′-{2-[methyl(m-tolyl)amino]-ethyl}urea], the melting point lay in the range of 160 to 162 °C. Also, the IC50 in data set [1] was under 100 nM.

The compound `CCOC(=O)c1c(F)cccc1OCCNC(=O)Nc1cccc2c1CC(O)CC2` (centres unmarked) [Example 1-3, Ethyl 2-Fluoro-6-{2-[3-(7-hydroxy-5,6,7,8-tetrahydronaphthalen-1-yl)-ureido]-ethoxy}benzoate] came in with a melting point of 165 to 166 °C. Besides, the IC50 in data set [1] was under 100 nM.

`CCN(CCNC(=O)Nc1cccc2c1C[C@@H](O)CC2)c1cccc(C)c1` [Example 1-12, N-{2-[Ethyl(m-tolyl)amino]ethyl}-N′-[(7S)-7-hydroxy-5,6,7,8-tetrahydro-1-naphthalenyl]urea] came in with a melting point of 136 to 137 °C. For the same compound, in data set [1], the half-maximal inhibitory concentration (IC50) is under 100 nM.

As for `O=C(NCCOc1ccccc1F)Nc1cccc2c1CC(O)CC2` (centres unmarked) [Example 1-2, N-[2-(2-Fluorophenoxy)ethyl]-N′-(7-hydroxy-5,6,7,8-tetrahydro-1-naphthalenyl)-urea], the melting point lay within 131 to 136 °C. For the same compound, in data set [1], the IC50 is under 100 nM.

`O=C(NCCOc1ccc(F)cc1)Nc1cccc2c1C[C@@H](O)CC2` [Example 1-8, N-[2-(4-Fluorophenoxy)ethyl]-N′-[(7S)-7-hydroxy-5,6,7,8-tetrahydronaphthalen-1-yl]urea] had a melting point of 112 to 113 °C. Also, the 50% inhibitory concentration (IC50) in data set [1] was under 100 nM.

Compound `CCN(CCNC(=O)Nc1cccc2c1CC(O)CC2)c1cccc(C)c1` (centres unmarked) [Example 1-9, N-{2-[Ethyl(m-tolyl)amino]ethyl]-N′-(7-hydroxy-5,6,7,8-tetrahydro-1-naphthalenyl)urea] had a melting point of 149 to 150 °C. For the same compound, the IC50 in data set [1] was under 100 nM.

For the compound `O=C(NCCOc1ccccc1N1CCCCC1)Nc1cccc2c1CC(O)CC2` (centres unmarked) [Example 1-5, N-(7-Hydroxy-5,6,7,8-tetrahydronaphthalen-1-yl)-N′-[2-(2-piperidin-1-yl-phenoxy)ethyl]urea], the melting point was in the range of 128 to 136 °C. In data set [1], the IC50 was under 100 nM.

For `O=C(NCCOc1cc(C(F)(F)F)cc(C(F)(F)F)c1)Nc1cccc2c1CC(O)CC2` (centres unmarked) [Example 1-4, N-{2-[3,5-Bis(trifluoromethyl)phenoxy]ethyl}-N′-(7-hydroxy-5,6,7,8-tetrahydronaphthalen-1-yl)urea], the melting point was in the range of 144 to 149 °C. Further, the IC50 in data set [1] is under 100 nM.

Compound `COc1ccccc1OCCNC(=O)Nc1cccc2c1CC(O)CC2` (centres unmarked) [Example 1-6, N-(7-Hydroxy-5,6,7,8-tetrahydronaphthalen-1-yl)-N′-[2-(2-methoxyphenoxy)ethyl]urea] returned a melting point of 182 to 184 °C. In addition, in data set [1], the IC50 is over 1000 nM.

On to `CN(CCCNC(=O)Nc1cccc2c1CC(O)CC2)c1ccccc1` (centres unmarked) [Example 1-13, N-(7-Hydroxy-5,6,7,8-tetrahydronaphthalen-1-yl)-N′-[3-(methyl-phenyl-amino)propyl]urea], for which the melting point lay in the range of 125 to 126 °C. Besides, the IC50 in data set [1] was under 100 nM.
